Results reported in US7045495B2 (Sloan-Kettering Institute for Cancer Research, priority 1996, dated 2006).
pIC50: −log10 of the molar value. Values joined by “and” are separate entries in the source; they are usually repeats but may differ in a detail not shown here. Equal values may be shown once. Where a name gives a salt, the structure may show the parent alone. Read-outs that look alike come from different tables or passages of the source.

How the values were obtained:
MKN-74 [1] = experiment: clonogenic assay, resistance relative to MKN-74; assay type: cell-based, human; settings: MKN-74 (reference); 10 μg/ml CDDP, 5 μg/ml MMC, 50 FM 5-FU
From the text: (§1) The basis of drug resistance in these disease has not been well defined. […] For gastric cancer applicants have been successful in establishing five long-term cell lines, SK-GT-1, SK-GT-2, SK-GT-4, SK-GT-5, and SK-GT-6 for Sloan Kettering Gastric Tumor (12,13) none of which express P-glycoprotein (14). Yet, all these tumors are resistant to chemotherapy and to the induction of apoptosis. Applicants have reported that the relative sensitivity of these gastric cancer cells to chemotherapy is influenced by their p53 status (14).

NU-GC-4 = experiment: clonogenic assay, resistance relative to MKN-74; assay type: cell-based, human; settings: 10 μg/ml CDDP, 5 μg/ml MMC
From the text: as §1

SK-GT-1 = experiment: clonogenic assay, resistance relative to MKN-74; assay type: cell-based, human; settings: clonogenic survival ratio, 10 μg/ml CDDP, 5 μg/ml MMC, 50 FM 5-FU
From the text: as §1

SK-GT-2 = experiment: clonogenic assay, resistance relative to MKN-74; assay type: cell-based, human; settings: 10 μg/ml CDDP, 5 μg/ml MMC, 50 FM 5-FU
From the text: as §1

SK-GT-5 = experiment: clonogenic assay, resistance relative to MKN-74; assay type: cell-based, human; settings: 10 μg/ml CDDP, 5 μg/ml MMC, 50 FM 5-FU
From the text: as §1

16C mammary carcinoma = settings: cisplatin 10 mg/kg i.v.; safingol 20 mg/kg i.p.; cited from earlier work
MKN-74 [2] = experiment: cell viability, trypan blue dye exclusion; assay type: cell-based, human; settings: 24 hours, single drug or concomitant; bryostatin 1 μM, Mitomycin-C 1 μg/ml, Taxol 50 μM, Cisplatin 50 μM
From the text: Recently our laboratory has studied the effects of combining bryostatin with chemotherapy both in vitro and in vivo against solid tumors. For our in vitro studies, we have been using the human gastric cancer cell line MKN-74. Cytotoxicity has been examined both by cell viability assays using trypan blue dye exclusion assays and by the induction of apoptosis using quantitative fluorescent microscopy.

PKC = settings: flavopiridol; read-out: IC50, PKC enzyme activity; cited from earlier work
[3] = dog, in vivo, iv, 2.6 mg/kg; cited from earlier work
[4] = tested on: A549, HCT 8, T986, MCF-7 and HL-60 human cancer cell lines; settings: cited from earlier work
bcl-2 in OV432 cells = experiment: bcl-2 expression by Western immunoblotting; assay type: cell-based; settings: FLAVO concentrations as low as 50 nM
From the text: (§2) Over-expression of bcl-2 has been associated with resistance to chemotherapy and inhibition of apoptosis.

OV432 = experiment: trypan blue exclusion and alamar blue assays; assay type: cell-based; settings: FLAVO 24 hours
From the text: as §2

MKN-74 cells [5] = experiment: trypan blue exclusion and alamar blue assays; assay type: cell-based; settings: Homo sapiens, FLAVO 24 hours
From the text: as §2

183CLL = experiment: trypan blue exclusion and alamar blue assays; assay type: cell-based; settings: FLAVO 24 hours
From the text: as §2

[6] = tested on: MDA-MB-468 breast cancer cells; experiment: apoptosis by QFM, Hoechst-33258 staining; assay type: cell-based, human; settings: MDA-MB-468; flavopiridol, MMC
Method: PRELIMINARY STUDIES. […] Apoptosis was measured by quantitative fluorescent microscopy (QFM) of nuclear changes induced by apoptosis, as determined by bisbenzimide trihydrochloride (Hoescht-33258) staining of condensed nuclear chromatin (24). For the QFM duplicate samples of 500 cells each were counted and scored for the incidence of apoptotic chromatin condensation using an Olympus BH-2 fluorescence microscope.
Applicants also tested the PKC inhibitor UCN-01 (27) which is currently in phase I clinical trial at the NCI. In contrast to safingol, which inhibits PKC by binding to its regulatory domain, UCN-01 inhibits PKC at its catalytic domain. Therefore, assessment of the effect of UCN-01 on inducing apoptosis in combination with MMC on MDA-MB-468 was also performed. The QFM method to quantitate apoptosis was again used. The conditions tested were identical to those described above for safingol except UCN-01 (1 μM) was substituted for safingol in all the conditions.
(§3) Induction of apoptosis was estimated by counting the frequency of condensed nuclear chromatin with Hoechst-33258 stain in duplicate samples of 400 cells.

MKN-74 cells [7] = experiment: apoptosis by QFM, Hoechst-33258 staining; assay type: cell-based, human
Method: Apoptosis was measured by two different methods: (i) Quantitative fluorescent microscopy (QFM) of nuclear changes induced by apoptosis, as determined by bisbenzimide trihydrochloride (Hoescht-33258) staining of nuclear chromatin (15), and (ii) a terminal deoxynucleotidyl transferase (TdT) assay that labels the 3′-OH ends of DNA fragments produced in apoptotic cells (16). […] MMC was diluted in water. A stock safingol solution was constituted in DMSO and was subsequently diluted at least 1:100 in media for all experiments. […] For QFM determinations, the cells were fixed in 3% paraformaldehyde and incubated at room temperature for 10 minutes. The fixative was removed and the cells were washed with 1×PBS, resuspended in 20 μl 1×PBS containing only 8 μg/ml of bisbenzimide trihydrochloride (Hoechst #33258), and incubated at room temperature for 15 minutes. Aliquots of the cells (10 μl) were placed on glass slides coated with 3-amino-propyl-triethoxysilane, and duplicate samples of 500 cells each were counted and scored for the incidence of apoptotic chromatin condensation using an Olympus BH-2 fluorescence microscope equipped with a BH2-DM2U2UV Dich. Mirror Cube filter (Olympus, Lake Success, N.Y.). For the TdT assays, the ApopTag Kit (Oncor, Gaithersburg, Md.) was used. This method employs a fluoresceinated antidigoxigenin antibody directed against nucleotides of digoxigenin-11-dUTP (d-dUTP) which are catalytically added to the 3-ends fragmented DNA by TdT. Briefly, 1–2×10^6 cells were washed and fixed with 1% paraformaldehyde. The fixed cells were incubated in a reaction mixture containing TdT and d-dUTP for 30 minutes at 37° C. Stop/wash buffer was added, and the cells were resuspended in 100 μl of fluorescinated anti-digoxigenin antibody for 30 minutes at room temperature. The cells were then washed with 0.1% Triton X-100 and counterstained with propidium iodide (PI) solution. Green (d-dUTP labeled DNA strand breaks) and red (PI staining for total DNA content) fluorescence of individual cells were measured on a FACScan flow cytometer (Becton Dickinson, San Jose, Calif.). The resulting bivariate plots enabled the detection of apoptotic events within the cell cycle. The R1 cursor was set using the control specimen to define normal levels of green fluorescence (i.e., basal levels of apoptosis). Cells with fluorescence above the R, cursor were considered apoptotic. The data from 10,000 cells were collected and analyzed using CellFit and LYSYS software (Becton Dickinson).
Apoptosis was again measured by QFM staining.
as §3
For these studies apoptosis was measured by quantitative fluorescent microscopy (QFM) determination with bisbenzimide trihydrochloride stain (Hoescht-33258) for condensed nuclear chromatin characteristic of apoptotic cells.
For QFM determinations 500 cells were counted and scored for the incidence of apoptotic chromatin changes under an Olympus BH-2 fluorescence microscope in duplicate samples, ±SD, using a BH2-DM2U2UV Dich. Mirror Cube filter.
To study this further applicants elected to examine five bis-indolylmaleimides with various potencies against PKC. […] The induction of apoptosis was estimated by counting the frequency of condensed nuclear chromatin with Hoechst-33258 stain in duplicate samples of 400 cells.

SUDHL-4 lymphoma cells = settings: cited from earlier work
[8] = Fischer 344 rats, cited from earlier work
[9] = tested on: PC-3 prostate cancer cells; settings: cited from earlier work
[10] = molecular target: cyclic-adenosine monophosphate-dependent protein kinase A; settings: flavopiridol; read-out: IC50, cyclic AMP-dependent protein kinase; cited from earlier work
[11] = tested on: PKC obtained from MKN-74 gastric cancer cells; experiment: PKC purified from MKN-74 cells, phosphorylation of myelin basic protein; assay type: biochemical, human; settings: for PKC activity: no drug 25,000
From the text: For these experiments MKN-74 cells were homogenized and PKC was purified on a DEAE cellulose column as described (37). […] A control sample was also run with the PKC pseudosubstrate, which functions as an established PKC inhibitor. The results, as shown in the table below, are expressed as the absolute counts of [^32P]ATP incorporated into myelin basic protein/minute of assay time: […]

[12] = cited from earlier work
MDA-MB-468 cells = settings: cited from earlier work
bcl-2 in MKN-74 cells = experiment: bcl-2 expression by Western immunoblotting; assay type: cell-based, human; settings: 300 nM of FLAVO; co-treatment with MMC 50 μM
From the text: as §2

[13] = second phase I trial; cited from earlier work

## O=c1[nH]cc(F)c(=O)[nH]1 [5-FU, 5-Fluorouracil]
MKN-74 [1]
  Fold-Increase in Resistance Relative to MKN-74 (p53wt): 1X
NU-GC-4
  Fold-Increase in Resistance Relative to MKN-74 (p53wt): 0.6X
SK-GT-1
  Fold-Increase in Resistance Relative to MKN-74 (p53wt): 11X
SK-GT-2
  Fold-Increase in Resistance Relative to MKN-74 (p53wt): 12X
SK-GT-5
  Fold-Increase in Resistance Relative to MKN-74 (p53wt): 6X

## N.N.[Cl][Pt][Cl] [cisplatin, Cisplatin]
16C mammary carcinoma
  time for tumor to reach 5 times its starting size: 10 days
MKN-74 [2]
  % of Cells Alive: 60%
MKN-74 [1]
  Fold-Increase in Resistance Relative to MKN-74 (p53wt): 1X
NU-GC-4
  Fold-Increase in Resistance Relative to MKN-74 (p53wt): 2X
SK-GT-1
  Fold-Increase in Resistance Relative to MKN-74 (p53wt): 21X
SK-GT-2
  Fold-Increase in Resistance Relative to MKN-74 (p53wt): 11X
SK-GT-5
  Fold-Increase in Resistance Relative to MKN-74 (p53wt): 12X

## CN1CC[C@H](c2c(O)cc(O)c3c(=O)cc(-c4ccccc4Cl)oc23)[C@H](O)C1 (relative stereo) [flavopiridol, 2-(2-chlorophenyl)-5,7-dihydroxy-8-(cis-3-hydroxy-1-methyl-4-piperidinyl)-4H-1-benzopyran-4-one, hydrochloride]
PKC
  pIC50: 5.22
[3]
  tolerability: tolerated without evidence of significant toxicity
[4]
  concentration range inhibiting colony formation: 250 to 300 nM
bcl-2 in OV432 cells
  bcl-2 expression: complete loss of bcl-2
OV432
  pIC50: 7.00
MKN-74 cells [5]
  pIC50: < 6.10
183CLL
  pIC50: 6.40
[6]
  percentage of cells undergoing apoptosis: 29%±2%
MKN-74 cells [7]; 24 h continuous (single drug) or concomitant, flavopiridol 300 nM, MMC 1 μg/ml, paclitaxel 50 μM, carboplatin, hydrochloride
  Percent Apoptosis: 12%±1% and 11.6%±1%
MKN-74 cells [7]; 24 hours, FLAVO 300 nM, Taxol 50 μM, MMC 1 μg/ml, single drugs or in combination
  % APOPTOSIS: 17%
MKN-74 cells [7]; 24 hours, FLAVO 300 nM, Taxol 50 μM, MMC 1 μg/ml, single drugs or together
  percent induction of apoptosis, Concomitant: 17% ± 2%
MKN-74 cells [7]; FIG. 7, 24 hours, flavopiridol 300 nM, MMC 50 μM (as printed b127)
  induction of apoptosis (QFM): 17%±2%
MKN-74 cells [7]; MKN-74, 24 hours, Flavo 300 nM, MMC 5 μg/ml
  induction of apoptosis (condensed chromatin, 400 cells): 17% ± 2
SUDHL-4 lymphoma cells
  concentration inducing apoptosis: 100 nM
[8]
  Maximal plasma drug concentration (Cmax): 9500 ng/mL
  Plasma clearance: 58 mL/min/kg
  elimination half-life (T1/2): 1.87 h
[8]; read-out: Maximal plasma drug concentration (Cmax)
  Cmax: 21.7 µM
[9]
  concentration required to produce a similar effect (apoptosis): at least 1000 nM
[10]
  pIC50: 3.84
[11]; Flavopiridol 34 nM
  Percent inhibition of PKC activity: 84%
  PKC activity: 4,000 counts of [^32P]ATP incorporated into myelin basic protein/minute
[11]; Flavopiridol 340 nM
  Percent inhibition of PKC activity: 87%
  PKC activity: 3,300 counts of [^32P]ATP incorporated into myelin basic protein/minute
[12]; one phase I study, 72 hour infusion every 2 weeks
  MTD: 50 mg/m^2/day
[12]; the other phase I trial
  MTD: 56 mg/m^2/day
MDA-MB-468 cells; exposure for 24 hours
  cytotoxicity: essentially no cytotoxicity
MDA-MB-468 cells; prolonged exposure for 72 hours
  cell proliferation: inhibits cell proliferation
bcl-2 in MKN-74 cells
  bcl-2 expression: failed to induce any decrease in bcl-2
[13]
  t1/2: 14 h
